Experimental data reported in US7795213B2 (POSCO, priority 2002, dated 2010).
pKd: −log10 of the molar value.

How the values were obtained:
Aβ40-1 [1] = conditions: 100 μM Aβ40-1, 1 nM 125I-VEGF165, 37° C., 2 days; P=0.0076
Experimental: (§1) The aggregation of Aβ1-40 was determined as described with some modifications (Chang et al., Brain Res Brain Res Protoc 2000;6(1-2):6-12). After a two day incubation of Aβ1-40 (100 μM) with FITC-conjugated Aβ1-40 (1 μM) in 50 mM MES, pH 5.8, at 37° C., the mixture was centrifuged, and fluorescence in the pellet was measured. […] Then the mixtures were centrifuged and radioactivity in pellet was determined in a gamma-counter. […] The radioactivity in the pellet was determined.

Aβ40-1 [2] = test system: Aβ40-1
Experimental: (§2) Aβ1-40, Aβ1-42, and Aβ40-1 (BACHEM, Bubendorf, Switzerland) were immobilized on a CM5 sensor chip (BIAcore AB, Uppsala, Sweden) with an amine coupling kit. Alpha2-macroglobulin, alpha1-antichymotrypsin, serum amyloid P component, apolipoprotein E4, and VEGF165 (100 nM) were allowed to bind to the immobilized Aβ at a flow rate of 10 μl/min and sensorgrams were recorded in real time.

Aβ1-40 [3] = target: T1, Aβ1-40 (Homo sapiens, UniProt P05067); test: 125I-VEGF competition binding to immobilized Aβ peptide in microtiter wells; conditions: read-out: dissociation constant (KD) of VEGF for Aβ; immobilized Aβ1-40; 50 pM 125I-VEGF with increasing unlabeled VEGF; KD=IC50-[125I-VEGF]
T1 construct: Aβ1-40, Aβ1-42, and Aβ40-1 (BACHEM, Bubendorf, Switzerland) were immobilized on a CM5 sensor chip; purchased BACHEM

pre-aggregated Aβ1-40 = target: T2, pre-aggregated Aβ1-40 (Homo sapiens, UniProt P05067); test: Binding of 125I-VEGF to pre-aggregated Aβ, immediate centrifugation; conditions: 50 μM Aβ preincubated for 2 days, 1 nM 125I-VEGF, immediately centrifuged
T2 construct: Aβ1-40, Aβ1-42, and Aβ40-1 (BACHEM, Bubendorf, Switzerland) were immobilized on a CM5 sensor chip; purchased BACHEM
Experimental: as §1

Aβ1-40 [4] = target: T1, Aβ1-40; test: Co-aggregation assay of 125I-VEGF165 with Aβ, radioactivity in pellet; format: binding; conditions: 100 μM Aβ1-40, 1 nM 125I-VEGF165, 37° C., 2 days; approximately 60% of Aβ alone in pellet
Experimental: as §1

immobilized Aβ aggregate = target: T3, immobilized Aβ aggregate (Homo sapiens, UniProt P05067); test: In vitro VEGF trapping on immobilized Aβ aggregate; format: binding; conditions: 50 μM Aβ aggregated 24 hours and dried on well; radiolabeled VEGF; no inhibitor
T3 construct: Aβ (Aβ) is the major component of senile plaques and is derived from the amyloid precursor protein by proteolytic cleavage
Experimental: The system is simulating VEGF trapping on Aβ plaques under in vitro condition. In the in vitro assay system, 50 μM of Aβ was aggregated at 37° C. for 24 hours and immobilized on the bottom of a well by drying under air for overnight, and then, VEGF labeled with a radioisotope was added to the well, to form VEGF-Aβ binding. After removing unbound VEGF, bound VEGF was determined by measuring radioactivity. […] If certain chemical has inhibitory activity against VEGF-Aβ binding, then the chemical will decrease the amount of VEGF trapped on immobilized Aβ aggregate.

Aβ1-42 [5] = target: T4, Aβ1-42 (Homo sapiens, UniProt P05067); test: Thioflavin T assay of Aβ aggregation; format: biochemical; conditions: 50 μM Aβ1-42, 37° C., 24 hours; VEGF or GST-HBD at various concentrations
T4 construct: Aβ1-40, Aβ1-42, and Aβ40-1 (BACHEM, Bubendorf, Switzerland) were immobilized on a CM5 sensor chip; purchased BACHEM
Experimental: 10 μM of thioflavin T was added to the mixture and sufficiently mixed. Then, the fluorescence of the mixture was measured at Ex=444 nm and Em=485 nm, and then, compared with that of control of Aβ incubated alone, to determine the affection on aggregation of Aβ.
50 μM Aβ was incubated at 37° C. for 24 hours together with triamterene of 0 μM, 4 μM, 20 μM or 100 μM, respectively, to generate aggregation of Aβ. Then, the degree of aggregation was determined by the thioflavin T assay as illustrated in Example 11.

Aβ1-40 [6] = target: T1, Aβ1-40; test: Effect of VEGF on the aggregation rate of Aβ, FITC-Aβ1-40 fluorescence in pellet; format: biochemical; conditions: VEGF 1 μM; 50 μM and 100 μM Aβ1-40; 37° C.
Aβ = target: T5, Aβ (Homo sapiens, UniProt P05067); test: Binding of growth factors to Aβ; conditions: among NGF, bFGF, PDGF, VEGF and midkine
T5 construct: Aβ (Aβ) is the major component of senile plaques and is derived from the amyloid precursor protein by proteolytic cleavage

Aβ/VEGF co-aggregate = target: T6, Aβ/VEGF co-aggregate (Homo sapiens, UniProt P05067); test: Dissociation assay of VEGF from Aβ/VEGF co-aggregate; format: binding; conditions: after 3 days; 50 mM MES, pH 5.8
T6 construct: purchased BACHEM (Aβ peptides); Amersham Pharmacia Biotech (125I-VEGF)
Experimental: The radioactivity in the supernate was determined. […] The mixtures were separated by SDS-PAGE (10%) and autoradiographed.

[7] = Keyt et al., J. Biol. Chem. 1996; cited from earlier work
Aβ1-42 [8] = target: T4, Aβ1-42; test: Surface plasmon resonance binding to Aβ peptide on CM5 sensor chip; conditions: 100 nM protein; versus alpha2-macroglobulin, alpha1-antichymotrypsin, serum amyloid P component, apolipoprotein E4
Experimental: as §2

Aβ1-40 [9] = target: T1, Aβ1-40; test: as above; conditions: 100 nM protein; versus alpha2-macroglobulin, alpha1-antichymotrypsin, serum amyloid P component, apolipoprotein E4
Experimental: as §2

PC12 cells = test: DCF fluorescence, generation of reactive oxygen species by Aβ; format: cell-based; conditions: PC12 cells 3 hours
Experimental: 5 μM VEGF165 or 5 μM GST-HBD and 5 μM Aβ1-42 were mixed and incubated at 37° C. for 24 hours. The mixture was added to PC12 cells (6×10^4, cells/well, kindly provided by Dr. Pann-Ghill Suh), and then left for reaction at 37° C. for 3 hours. Then, 100 μM of DCF solution was added to the resulted mixture, reacted for 30 minutes, and then washed with PBS (phosphate-buffered saline). The obtained cells were observed through a fluorescent microscope, and DCF fluorescence was measured, to calculate the level of generation of the reactive oxygen species.

Sequence of Aβ40-1 (as listed by the source): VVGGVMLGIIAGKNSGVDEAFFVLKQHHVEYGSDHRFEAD

VEGF
sedimentation of VEGF in presence of Aβ40-1 (Aβ40-1 [1]): did not cause extensive sedimentation of VEGF | binding to Aβ40-1 (reverse peptide) (Aβ40-1 [2]): did not bind | pKd (Aβ1-40 [3]): ~10.30 | binding of VEGF to pre-aggregated Aβ (pelleted by centrifugation) (pre-aggregated Aβ1-40): bound to pre-aggregated Aβ | proportion of 125I-VEGF in the pellet after incubation with Aβ1-40 (Aβ1-40 [4]): About the same proportion | VEGF trapping into Aβ, share of VEGF added (immobilized Aβ aggregate): about 70% | inhibition of aggregation of Aβ (thioflavin T) (Aβ1-42 [5]): inhibit aggregation of Aβ depending on the concentration | influence of VEGF on the aggregation of Aβ1-40 (time course) (Aβ1-40 [6]): no significant influence | binding of growth factor to Aβ (Aβ): bound to A | VEGF released from the Aβ/VEGF complex (Aβ/VEGF co-aggregate): less than 1.5% | bioactivity relative to VEGF121 [7]: 100 fold | binding to immobilized Aβ1-42 (surface plasmon resonance) (Aβ1-42 [8]): much more strongly than other molecules that are known to bind to Aβs | binding to immobilized Aβ1-40 (surface plasmon resonance) (Aβ1-40 [9]): much more strongly than other molecules that are known to bind to Aβs | generation of the reactive oxygen species, treatment alone (PC12 cells; 5 μM VEGF165 or 5 μM GST-HBD alone): no effect on the generation of the reactive oxygen species | generation of the reactive oxygen species by Aβ, treatment together with Aβ (PC12 cells; 5 μM VEGF165 or 5 μM GST-HBD with 5 μM Aβ1-42): inhibitory effect on the generation of the reactive oxygen species by Aβ
